Reference: ChEMBL document CHEMBL1201862, “PubChem BioAssay data set” (2004)
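Briefly, cells in 96-well plates were exposed to five compound concentrations for 48 h, and endpoints were estimated by linear interpolation. GI50 is the concentration that inhibits growth by half.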 Active and inactive are the calls of the source. Rule as the data show it: active = GI50 up to about 1.1 µM and inactive = higher.

Columns and labels:
Assay in all cases: NCI tumour cell line growth inhibition, 48 h
A498 = system: A498
A549 = system: A549
CCRF-CEM = system: CCRF-CEM
HCC 2998 = system: HCC 2998
HCT-15 = system: HCT-15
HOP-62 = system: HOP-62
IGROV-1 = system: IGROV-1
M14 = system: M14
NCI-H23 = system: NCI-H23
OVCAR-4 = system: OVCAR-4
OVCAR-8 = system: OVCAR-8
RXF 393 = system: RXF 393
SF-295 = system: SF-295
SN12C = system: SN12C
SNB-75 = system: SNB-75
U-251 = system: U-251
UACC-62 = system: UACC-62
HOP-92 = system: HOP-92

| SMILES | GI50 (A498) | GI50 (A549) | GI50 (CCRF-CEM) | GI50 (HCC 2998) | GI50 (HCT-15) | GI50 (HOP-62) | GI50 (IGROV-1) | GI50 (M14) | GI50 (NCI-H23) | GI50 (OVCAR-4) | GI50 (OVCAR-8) | GI50 (RXF 393) | GI50 (SF-295) | GI50 (SN12C) | GI50 (SNB-75) | GI50 (U-251) | GI50 (UACC-62) | GI50 (HOP-92) |
| --- | --- | --- | --- | --- | --- | --- | --- | --- | --- | --- | --- | --- | --- | --- | --- | --- | --- | --- |
| CC[P+](C)(C)c1ccccc1 | > 100 µM (inactive) | > 100 µM (inactive) | > 100 µM (inactive) | > 100 µM (inactive) | > 100 µM | > 100 µM (inactive) | > 100 µM (inactive) | > 100 µM (inactive) | > 100 µM (inactive) | 99.3 µM (inactive) | > 100 µM (inactive) | > 100 µM (inactive) | > 100 µM (inactive) | > 100 µM (inactive) | > 100 µM (inactive) | > 100 µM (inactive) | > 100 µM (inactive) | – |
| CCOC(=O)c1cc(-c2ccc(-c3cc(C(=O)OCC)c(C#N)c(N)c3C#N)cc2)c(C#N)c(N)c1C#N | – | > 100 µM (inactive) | > 100 µM (inactive) | > 100 µM (inactive) | > 100 µM | > 100 µM (inactive) | > 100 µM (inactive) | > 100 µM (inactive) | > 100 µM (inactive) | > 100 µM (inactive) | > 100 µM (inactive) | > 100 µM (inactive) | > 100 µM (inactive) | > 100 µM (inactive) | – | > 100 µM (inactive) | > 100 µM (inactive) | – |
| O=C(O/N=C1/CCC/C1=C\c1ccccc1)c1ccccc1 | > 100 µM (inactive) | > 100 µM (inactive) | 48.8 µM (inactive) | – | 59.6 µM | > 100 µM (inactive) | > 100 µM (inactive) | > 100 µM (inactive) | > 100 µM (inactive) | > 100 µM (inactive) | 88.7 µM (inactive) | > 100 µM (inactive) | > 100 µM (inactive) | > 100 µM (inactive) | 47.5 µM (inactive) | > 100 µM (inactive) | > 100 µM (inactive) | > 100 µM (inactive) |
| CCC12CCCN(Cc3ccccc3)C1c1c(n(C)c3ccccc13)CC2 (configuration not stated) | – | > 25.3 µM (inactive) | 168 µM (inactive) | 151 µM (inactive) | 185 µM | > 253 µM (inactive) | 159 µM (inactive) | – | 111 µM (inactive) | – | > 253 µM (inactive) | 97.3 µM (inactive) | 117 µM (inactive) | 149 µM (inactive) | – | 247 µM (inactive) | 230 µM (inactive) | 110 µM (inactive) |
| C/C(CC(=O)Nc1ccccc1[N+](=O)[O-])=N\NC(N)=O | – | > 100 µM (inactive) | > 100 µM (inactive) | > 100 µM (inactive) | – | > 100 µM (inactive) | > 100 µM (inactive) | > 100 µM (inactive) | > 100 µM (inactive) | – | > 100 µM (inactive) | > 100 µM (inactive) | > 100 µM (inactive) | – | > 100 µM (inactive) | > 100 µM (inactive) | > 100 µM (inactive) | > 100 µM (inactive) |
| CC(C)OC(=O)C1=C(O)c2ccccc2S(=O)(=O)N1 | > 100 µM (inactive) | > 100 µM (inactive) | > 100 µM (inactive) | > 100 µM (inactive) | > 100 µM | > 100 µM (inactive) | > 100 µM (inactive) | > 100 µM (inactive) | > 100 µM (inactive) | > 100 µM (inactive) | > 100 µM (inactive) | – | > 100 µM (inactive) | > 100 µM (inactive) | > 100 µM (inactive) | > 100 µM (inactive) | > 100 µM (inactive) | – |
| C#CCN(Cc1ccc2nc(-c3ccccc3)c(Cl)nc2c1)c1ccc(Cl)c(Cl)c1 | > 100 µM (inactive) | > 100 µM (inactive) | > 100 µM (inactive) | 33.5 µM (inactive) | > 100 µM | > 100 µM (inactive) | > 100 µM (inactive) | > 100 µM (inactive) | > 100 µM (inactive) | > 100 µM (inactive) | > 100 µM (inactive) | – | > 100 µM (inactive) | > 100 µM (inactive) | > 100 µM (inactive) | > 100 µM (inactive) | > 100 µM (inactive) | > 100 µM (inactive) |
| COc1cc2cnc3c4cc(OCc5ccccc5)ccc4ccc3c2cc1OC | – | 25.5 µM (inactive) | 2.81 µM (inactive) | 31.8 µM (inactive) | 70.1 µM | 18.9 µM (inactive) | 28.1 µM (inactive) | 19.8 µM (inactive) | 25.2 µM (inactive) | 6.92 µM (inactive) | 18.2 µM (inactive) | 12 µM (inactive) | 15.6 µM (inactive) | 73.3 µM (inactive) | 3.94 µM (inactive) | 24.3 µM (inactive) | 39.5 µM (inactive) | 16.6 µM (inactive) |
| O=C(NC1C(=O)NNC1c1cccc([N+](=O)[O-])c1)c1ccccc1 (configuration not stated) | – | > 100 µM (inactive) | > 100 µM (inactive) | > 100 µM (inactive) | – | > 100 µM (inactive) | > 100 µM (inactive) | > 100 µM (inactive) | > 100 µM (inactive) | > 100 µM (inactive) | > 100 µM (inactive) | > 100 µM (inactive) | > 100 µM (inactive) | > 100 µM (inactive) | > 100 µM (inactive) | > 100 µM (inactive) | > 100 µM (inactive) | > 100 µM (inactive) |
| CC(=O)N1C/C(=C\c2ccccc2)C(=O)/C(=C/c2ccccc2)C1 | 16.8 µM (inactive) | 23.1 µM (inactive) | 2.82 µM (inactive) | 10.9 µM (inactive) | 8.38 µM | 11.4 µM (inactive) | 17.6 µM (inactive) | 6.98 µM (inactive) | 19 µM (inactive) | 17.6 µM (inactive) | 7.8 µM (inactive) | 16.2 µM (inactive) | 13.4 µM (inactive) | 14.4 µM (inactive) | 20 µM (inactive) | 15.6 µM (inactive) | 14.4 µM (inactive) | – |
| O=C(CC(=O)c1cccc2ccccc12)C(=O)Nc1ccc(Cl)cc1 | > 100 µM (inactive) | > 100 µM (inactive) | > 100 µM (inactive) | > 100 µM (inactive) | > 100 µM | > 100 µM (inactive) | > 100 µM (inactive) | > 100 µM (inactive) | > 100 µM (inactive) | > 100 µM (inactive) | > 100 µM (inactive) | – | > 100 µM (inactive) | > 100 µM (inactive) | – | > 100 µM (inactive) | > 100 µM (inactive) | 19.6 µM (inactive) |
| NC(=O)c1cn(C2OC(CO)C(O)C2O)c(=O)[nH]c1=O (configuration not stated) | > 100 µM (inactive) | > 100 µM (inactive) | > 100 µM (inactive) | – | > 100 µM | > 100 µM (inactive) | > 100 µM (inactive) | > 100 µM (inactive) | > 100 µM (inactive) | > 100 µM (inactive) | > 100 µM (inactive) | – | > 100 µM (inactive) | – | > 100 µM (inactive) | > 100 µM (inactive) | > 100 µM (inactive) | > 100 µM (inactive) |
| CO[C@H](C(=O)O[C@H]1C(=O)N2CCC3CCC1C32C)c1ccccc1 (some centres not stated) | – | > 100 µM (inactive) | > 100 µM (inactive) | > 100 µM (inactive) | > 100 µM | > 100 µM (inactive) | > 100 µM (inactive) | > 100 µM (inactive) | > 100 µM (inactive) | > 100 µM (inactive) | > 100 µM (inactive) | > 100 µM (inactive) | > 100 µM (inactive) | > 100 µM (inactive) | > 100 µM (inactive) | > 100 µM (inactive) | > 100 µM (inactive) | – |
